Experimental data taken from patent US20080064718A1, “INHIBITORS OF PROTEIN TYROSINE KINASE ACTIVITY” (priority 2006, published 2008).
Where two headings read alike, the source gives them in different places.

Columns and labels:
[1] = system: A549; experiment: A549 inhibition of wound healing; type: cell-based; details: read-out: A549 INHIB WND ING IC50 UM
[2] = biological target: T1, VEGF receptor KDR (Homo sapiens, UniProt P35968); experiment: In vitro receptor tyrosine kinase assay, VEGF receptor KDR (DELFIA); type: biochemical; details: GST-VEGFR2 806-1356, ATP 0.6 uM
T1 construct: made in house; host or cells: Sf9 cells (Spodoptera frugiperda), recombinant baculovirus
From the text: In the case of VEGF receptor KDR a 1.6-kb cDNA corresponding to the catalytic domain of VEGFR2 or KDR (Genbank accession number AF035121 amino acid 806 to 1356) is cloned into the Pst I site of the pDEST20 Gateway vector (Invitrogen) for the production of a GST-tagged version of that enzyme.
The GST-VEGFR2806-1356 protein is expressed in Sf9 cells (Spodoptera frugiperda) upon infection with recombinant baculovirus construct.
The supernatant is loaded onto a GST-agarose column (Sigma) equilibrated with PBS pH 7.3. Following a four column volume (CV) wash with PBS pH 7.3+1% Triton X-100 and 4 CV wash with buffer B (50 mM Tris pH 8.0, 20% glycerol and 100 mM NaCl), bound proteins are step eluted with 5 CV of buffer B supplemented with 5 mM DTT and 15 mM glutathion. […] Final GST-VEGFR2806-1356 protein preparations concentrations are about 0.7 mg/ml with purity approximating 70%.

[3] = system: DU145; experiment: DU145 scattering; type: cell-based; details: DU145 cells, read-out: CMET DU145 SCATT HEAL- IC50 UM
[4] = biological target: recombinant human c-Met/HGF receptor (Homo sapiens, UniProt P08581); experiment: In vitro receptor tyrosine kinase assay, c-Met/HGF receptor (DELFIA)
[5] = biological target: T2, c-Met (Homo sapiens, UniProt P08581); experiment: c-Met phosphorylation direct ELISA in MKN45 cells; type: cell-based; details: 3 h treatment
T2 construct: endogenous in cells; host or cells: MKN45 gastric carcinoma cells
Procedure: Alternatively, the following assay is used to determine inhibition of c-Met phosphorylation.
The c-Met receptor is expressed in numerous cancer cell lines derived from tumors of epithelial origin. In MKN45 gastric carcinoma cells the c-Met gene is amplified, resulting in several-fold overexpression of the receptor and its constitutive activation.
Cell treatments: MKN45 cells are seeded into wells of 96-well plates at a density of 3×10^4 cells/well in RPMI medium supplemented with 10% FBS. […] Inhibitors are added to the medium in triplicate wells at the indicated doses.
After an overnight protein binding incubation at 4° C., lysates are aspirated and wells are blocked for 1 h at 37° C. in TBST supplemented with 5% BSA. Plates are incubated with the primary antibodies anti-phospho-Tyrosine (Millipore, 4G10) diluted 1/15000 in TBST supplemented with 5% BSA for 1 h at room temperature. Plates are washed 3 times on a plate washer (SkanWasher, Molecular Devises), and incubated with the reporter antibody […] (Sigma) diluted 1/15000 in TBST supplemented with 5% BSA, for 1 h at room temperature. Plates are washed 3 times with TBST using on a plate washer and subsequently incubated with chemiluminescent substrate solution (ECL, Roche). Luminescence signal is captured on a Polar Star Optima apparatus (BMG LabTech).
Average values of the triplicate samples are used to prepare IC50 curves using a 4-parameter fit model. These curves are calculated using, for example, GraFit 5.0 software. For assay standardization purpose, an internal control is included on each experimental test plate.

T1 sequence (P35968 806-1356): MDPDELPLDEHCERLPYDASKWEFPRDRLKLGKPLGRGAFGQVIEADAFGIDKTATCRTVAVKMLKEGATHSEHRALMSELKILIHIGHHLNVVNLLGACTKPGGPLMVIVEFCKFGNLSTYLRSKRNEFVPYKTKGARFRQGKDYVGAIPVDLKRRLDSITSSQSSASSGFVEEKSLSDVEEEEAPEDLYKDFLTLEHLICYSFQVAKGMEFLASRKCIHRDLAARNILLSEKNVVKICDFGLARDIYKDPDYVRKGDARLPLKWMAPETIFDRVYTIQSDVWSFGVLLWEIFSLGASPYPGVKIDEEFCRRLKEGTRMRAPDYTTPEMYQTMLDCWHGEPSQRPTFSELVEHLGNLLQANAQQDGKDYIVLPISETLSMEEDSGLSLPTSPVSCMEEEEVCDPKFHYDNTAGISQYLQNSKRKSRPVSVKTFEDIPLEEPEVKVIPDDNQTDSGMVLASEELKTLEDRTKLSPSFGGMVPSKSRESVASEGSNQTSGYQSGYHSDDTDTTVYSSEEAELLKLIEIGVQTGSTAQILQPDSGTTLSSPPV
T2 sequence (P08581 25-1390): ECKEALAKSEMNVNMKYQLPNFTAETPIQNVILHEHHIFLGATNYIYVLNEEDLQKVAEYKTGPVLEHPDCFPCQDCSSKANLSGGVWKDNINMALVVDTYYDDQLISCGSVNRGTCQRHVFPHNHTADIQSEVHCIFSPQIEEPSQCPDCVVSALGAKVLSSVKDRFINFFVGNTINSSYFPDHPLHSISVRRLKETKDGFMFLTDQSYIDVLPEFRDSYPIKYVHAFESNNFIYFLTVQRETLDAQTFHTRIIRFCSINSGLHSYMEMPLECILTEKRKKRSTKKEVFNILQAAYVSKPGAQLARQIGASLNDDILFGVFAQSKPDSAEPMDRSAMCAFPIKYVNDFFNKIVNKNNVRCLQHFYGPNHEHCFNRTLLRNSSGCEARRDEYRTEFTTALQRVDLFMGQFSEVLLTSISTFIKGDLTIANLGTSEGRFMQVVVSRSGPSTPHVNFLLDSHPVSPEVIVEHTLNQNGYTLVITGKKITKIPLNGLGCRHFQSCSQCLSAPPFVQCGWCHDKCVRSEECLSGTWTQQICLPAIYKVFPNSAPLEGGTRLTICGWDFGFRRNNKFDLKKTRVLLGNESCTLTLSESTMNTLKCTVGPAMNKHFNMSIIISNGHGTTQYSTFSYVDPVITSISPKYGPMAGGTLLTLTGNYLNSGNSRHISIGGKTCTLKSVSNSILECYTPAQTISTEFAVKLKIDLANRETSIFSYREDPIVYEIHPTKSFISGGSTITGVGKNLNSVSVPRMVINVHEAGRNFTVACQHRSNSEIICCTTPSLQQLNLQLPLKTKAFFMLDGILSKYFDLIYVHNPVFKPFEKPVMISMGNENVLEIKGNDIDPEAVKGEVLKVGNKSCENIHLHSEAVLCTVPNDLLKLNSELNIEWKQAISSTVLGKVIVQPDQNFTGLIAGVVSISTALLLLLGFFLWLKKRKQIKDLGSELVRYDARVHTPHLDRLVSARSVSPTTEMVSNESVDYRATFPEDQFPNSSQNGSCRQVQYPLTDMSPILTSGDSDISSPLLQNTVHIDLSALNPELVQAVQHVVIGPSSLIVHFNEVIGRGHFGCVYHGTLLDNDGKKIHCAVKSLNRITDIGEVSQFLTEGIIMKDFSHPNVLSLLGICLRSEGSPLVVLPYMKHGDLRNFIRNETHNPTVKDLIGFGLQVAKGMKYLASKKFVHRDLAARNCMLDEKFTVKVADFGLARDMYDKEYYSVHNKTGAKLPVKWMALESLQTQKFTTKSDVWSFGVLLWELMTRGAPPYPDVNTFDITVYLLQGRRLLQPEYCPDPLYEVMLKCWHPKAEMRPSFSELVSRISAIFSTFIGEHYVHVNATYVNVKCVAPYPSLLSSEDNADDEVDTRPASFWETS
Sequence of recombinant human c-Met/HGF receptor (P08581 1078-1337): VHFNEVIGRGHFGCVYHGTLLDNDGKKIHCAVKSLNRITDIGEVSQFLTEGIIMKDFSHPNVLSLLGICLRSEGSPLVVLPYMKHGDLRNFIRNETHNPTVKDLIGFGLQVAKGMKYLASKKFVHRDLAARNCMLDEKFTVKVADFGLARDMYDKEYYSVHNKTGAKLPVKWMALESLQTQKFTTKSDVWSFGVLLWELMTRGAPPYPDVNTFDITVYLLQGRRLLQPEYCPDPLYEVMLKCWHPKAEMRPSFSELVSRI

| Compound | IC50 ([1]; Homo sapiens, A549 cells) [µM] | IC50 ([2]; read-out: VEGFR IC50) [µM] | IC50 ([3]; Homo sapiens, DU-145) [µM] | IC50 [4] [µM] | IC50 [5] [µM] | IC50 ([2]; read-out: VEGFR (IC50)) [µM] | IC50 ([1]; Homo sapiens, A549, A549 cells) [µM] | IC50 ([1]; A549 cells) [µM] | IC50 [3] [µM] |
| --- | --- | --- | --- | --- | --- | --- | --- | --- | --- |
| O=C(NNC(=O)c1ccccc1)Nc1ccc(Oc2ccnc3cc(C4=CCNCC4)sc23)c(F)c1 | > 1 | < 0.25 | > 1 | 0.25 to 0.5 | > 1 |  |  |  |  |
| CN(C)CC(=O)N1CC=C(c2cc3nccc(Oc4ccc(NC(=O)N5CCN(c6ccccc6)C5=O)cc4F)c3s2)CC1 | < 0.25 | < 0.25 | < 0.25 | < 0.25 | < 0.25 |  |  |  |  |
| CN(C)CCOC(=O)N1CC=C(c2cc3nccc(Oc4ccc(NC(=O)N5CCN(c6ccccc6)C5=O)cc4F)c3s2)CC1 | 0.25 to 0.5 | < 0.25 | 0.25 to 0.5 | < 0.25 | < 0.25 |  |  |  |  |
| CCn1cnc(-c2cc3nccc(Oc4ccc(N(C)C(=O)N5CCN(c6ccccc6)C5=O)cc4F)c3s2)c1 | > 1 | < 0.25 | > 1 | 0.5 to 1 | 0.5 to 1 |  |  |  |  |
| C=CCN1CCN(C(=O)Nc2ccc(Oc3ccnc4cc(-c5cn(CC)cn5)sc34)c(F)c2)C1=O | 0.25 to 0.5 | < 0.25 | 0.25 to 0.5 | < 0.25 | 0.25 to 0.5 |  |  |  |  |
| Cn1ccnc1-c1cc2nccc(Oc3ccc(NC(=O)c4cnn(-c5ccccc5)c4C(F)(F)F)cc3F)c2s1 |  | > 1 | > 1 |  |  |  | > 1 |  |  |
| Cc1c(C(=O)Nc2ccc(Oc3ccnc4cc(-c5cn(C)cn5)sc34)c(F)c2)cnn1-c1ccccc1 |  | > 1 | > 1 |  |  |  | 0.25 to 0.5 |  |  |
| CN(C)C(=O)c1ccc(-c2cc3nccc(Oc4ccc(NC(=O)c5cnn(-c6ccccc6)c5C(F)(F)F)cc4F)c3s2)cc1 |  | > 1 | 0.25 to 0.5 |  |  |  | < 0.25 |  |  |
| CS(=O)(=O)CCNCc1ccc(-c2cc3nccc(Oc4ccc(NC(=O)c5cnn(-c6ccccc6)c5C(F)(F)F)cc4F)c3s2)cc1 |  | > 1 | > 1 |  |  |  | > 1 |  |  |
| COCCNC(=O)c1ccc(-c2cc3nccc(Oc4ccc(NC(=O)c5cnn(-c6ccccc6)c5C(F)(F)F)cc4F)c3s2)nc1 |  | > 1 | > 1 |  |  |  | > 1 |  |  |
| CN(C)C(=O)c1ccc(-c2cc3nccc(Oc4ccc(NC(=O)c5cnn(-c6ccccc6)c5C(F)(F)F)cc4F)c3s2)nc1 |  | > 1 | 0.25 to 0.5 |  |  |  | 0.25 to 0.5 |  |  |
| Cn1cnc(-c2cc3nccc(Oc4ccc(NC(=O)c5cnn(C)c5C(F)(F)F)cc4F)c3s2)c1 | > 1 | 0.5 to 1 | > 1 | < 0.25 |  |  |  |  |  |
| Cn1cnc(-c2cc3nccc(Oc4ccc(NC(=O)c5cnn(-c6ccccc6)c5)cc4F)c3s2)c1 [drawing 192] |  | > 1 | > 1 |  |  |  |  | 0.25 to 0.5 |  |
| Cn1cnc(-c2cc3nccc(Oc4ccc(NC(=O)c5cnn(-c6ccccc6)c5)cc4F)c3s2)c1 [drawing 202] |  | 0.5 to 1 |  |  |  |  |  | > 1 | > 1 |

Second part, led by results:

| IC50 ([1]; Homo sapiens, A549 cells) [µM] | IC50 ([2]; read-out: VEGFR IC50) [µM] | IC50 ([3]; Homo sapiens, DU-145) [µM] | IC50 [4] [µM] | IC50 [5] [µM] | IC50 ([2]; read-out: VEGFR (IC50)) [µM] | Compound | IC50 ([1]; Homo sapiens, A549, A549 cells) [µM] | IC50 ([1]; A549 cells) [µM] | IC50 [3] [µM] |
| --- | --- | --- | --- | --- | --- | --- | --- | --- | --- |
| 0.25 to 0.5 | < 0.25 | 0.25 to 0.5 | < 0.25 | < 0.25 |  | COC[C@H](C)NCc1cccc(-c2cc3nccc(Oc4ccc(NC(=O)N5CCN(c6ccccc6)C5=O)cc4F)c3s2)c1 |  |  |  |
| < 0.25 | < 0.25 | < 0.25 | < 0.25 | < 0.25 |  | O=C(Nc1ccc(Oc2ccnc3cc(-c4cccc[n+]4[O-])sc23)c(F)c1)N1CCN(c2ccc(F)cc2)C1=O |  |  |  |
| 0.25 to 0.5 | < 0.25 | < 0.25 | < 0.25 | < 0.25 |  | COCCNCc1cccc(-c2cc3nccc(Oc4ccc(NC(=O)N5CCN(c6ccccc6)C5=O)cc4F)c3s2)c1 |  |  |  |
| > 1 | < 0.25 | 0.25 to 0.5 | < 0.25 | < 0.25 |  | CS(=O)(=O)CCNCc1ccc(-c2cc3nccc(Oc4ccc(NC(=O)N5CCN(c6ccccc6)C5=O)cc4F)c3s2)cc1 |  |  |  |
| < 0.25 | < 0.25 | < 0.25 | < 0.25 | < 0.25 |  | COC[C@H](C)NCc1ccc(-c2cc3nccc(Oc4ccc(NC(=O)N5CCN(c6ccccc6)C5=O)cc4F)c3s2)cc1 |  |  |  |
| 0.25 to 0.5 | < 0.25 | < 0.25 | < 0.25 | < 0.25 |  | O=C(Nc1ccc(Oc2ccnc3cc(-c4ccc(CNC5CC5)cc4)sc23)c(F)c1)N1CCN(c2ccccc2)C1=O |  |  |  |
| > 1 | < 0.25 | 0.25 to 0.5 | < 0.25 | < 0.25 |  | O=C(Nc1ccc(Oc2ccnc3cc(-c4cnn(C5CCNCC5)c4)sc23)c(F)c1)N1CCN(c2ccccc2)C1=O |  |  |  |
| > 1 | 0.25 to 0.5 | > 1 |  | 0.5 to 1 |  | O=C(Nc1ccc(Oc2ccnc3cc(-c4ccc(CNCC(F)(F)F)cc4)sc23)c(F)c1)N1CCN(c2ccccc2)C1=O |  |  |  |
| < 0.25 | < 0.25 | 0.25 to 0.5 | < 0.25 | < 0.25 |  | CN(C)C(=O)c1ccc(-c2cc3nccc(Oc4ccc(NC(=O)N5CCN(c6ccccc6)C5=O)cc4F)c3s2)cc1 |  |  |  |
|  | 0.25 to 0.5 |  | 0.25 to 0.5 | < 0.25 |  | CS(=O)(=O)c1ccc(-c2cc3nccc(Oc4ccc(NC(=O)N5CCN(c6ccccc6)C5=O)cc4F)c3s2)cc1 |  |  |  |
|  | > 1 |  | > 1 |  |  | Cn1ccnc1-c1cc2nccc(Oc3ccc(NC(=O)c4ncc(-c5ccccc5)s4)cc3F)c2s1 |  |  |  |
| 0.25 to 0.5 | > 1 | > 1 | < 0.25 | 0.5 to 1 |  | Cn1cnc(-c2cc3nccc(Oc4ccc(NC(=O)c5cnn(-c6ccccc6)c5C(F)(F)F)cc4F)c3s2)c1 |  |  |  |
|  | > 1 |  | < 0.25 |  |  | Cn1ccnc1-c1cc2nccc(Oc3ccc(NC(=O)c4ccc(-c5ccccc5)cc4F)cc3F)c2s1 |  |  |  |
| 0.25 to 0.5 | > 1 | > 1 | 0.25 to 0.5 | < 0.25 |  | COCCN(C)Cc1ccc(-c2cc3nccc(Oc4ccc(NC(=O)NNc5ccccc5)cc4F)c3s2)cc1 |  |  |  |
| 0.25 to 0.5 | > 1 | 0.25 to 0.5 | < 0.25 | 0.25 to 0.5 |  | COCCNCc1ccc(-c2cc3nccc(Oc4ccc(NC(=O)c5cnn(-c6ccccc6)c5C(F)(F)F)cc4F)c3s2)nc1 |  |  |  |
| > 1 | > 1 | > 1 | > 1 |  |  | CCOC(=O)c1ccc(-c2cc3nccc(Oc4ccc(NC(=O)c5cnn(-c6ccccc6)c5C(F)(F)F)cc4F)c3s2)cc1 |  |  |  |
| 0.25 to 0.5 | > 1 | > 1 | < 0.25 |  |  | COCCN(C)C(=O)c1ccc(-c2cc3nccc(Oc4ccc(NC(=O)c5cnn(-c6ccccc6)c5C(F)(F)F)cc4F)c3s2)nc1 |  |  |  |
| < 0.25 | > 1 | 0.25 to 0.5 | < 0.25 |  |  | CS(=O)(=O)c1ccc(-c2cc3nccc(Oc4ccc(NC(=O)c5cnn(-c6ccccc6)c5C(F)(F)F)cc4F)c3s2)nc1 |  |  |  |
| > 1 | > 1 | > 1 | < 0.25 |  |  | CN(C)C(=O)c1ccc(-c2cc3nccc(Oc4ccc(NC(=O)c5cnn(-c6ccc(F)cc6)c5C(F)(F)F)cc4F)c3s2)cc1 |  |  |  |
|  |  |  |  |  | < 0.25 | Cn1cnc(-c2cc3nccc(Oc4ccc(NC(CC(=O)Nc5ccccc5)C(F)(F)F)cc4F)c3s2)c1 (centres unmarked) [Compound 8, 4,4,4-Trifluoro-3-(3-fluoro-4-(2-(1-methyl-1H-imidazol-4-yl)thieno[3,2-b]pyridin-7-yloxy)phenylamino)-N-phenylbutanamide] |  |  |  |
|  |  |  |  |  | < 0.25 | Cn1cnc(-c2cc3nccc(Oc4ccc(NC(=O)CC(Nc5ccccc5)C(F)(F)F)cc4F)c3s2)c1 (centres unmarked) [Compound 12, 4,4,4-Trifluoro-N-(3-fluoro-4-(2-(1-methyl-1H-imidazol-4-yl)thieno[3,2-b]pyridin-7-yloxy)phenyl)-3-(phenylamino)butanamide] |  |  |  |
